In patent US9902740B2, “Macrocyclic benzodiazepine dimers, conjugates thereof, preparation and uses” (BRISTOL-MYERS SQUIBB COMPANY, priority 2015, dated 2018):
Like-named read-outs stand apart in the source and are kept apart here.

Legend:
Type in all cases: cell-based
[1] = test system: H226 human lung cancer cell line; assay: Cytotoxic activity of dimers against H226 cells; conditions: for EC50: Table 5 comparative activities, H226
From the text: (§1) H226 is a human lung cancer cell line. N87 is a human gastric cancer cell line. OVCAR3 is a human ovarian cancer cell line. HCT116 is a human colon cancer cell line. HCT116/VM46 is a human colon cancer cell line that is multi-drug and paclitaxel resistant.

[2] = test system: N87 human gastric cancer cell line; assay: Cytotoxic activity of dimers against N87 cells; conditions: for IC50: read-out: Cell Line (IC50, nM) N87; for EC50: Table 5 comparative activities, N87
From the text: as §1

[3] = test system: OVCAR3 human ovarian cancer cell line; assay: Cytotoxic activity of dimers against OVCAR3 cells; conditions: for EC50: Table 5 comparative activities, OVCAR3
From the text: as §1

[4] = test system: HCT116 human colon cancer cell line; assay: Cytotoxic activity of dimers against HCT116 cells
From the text: as §1

[5] = test system: HCT116/VM46 human colon cancer cell line (multi-drug and paclitaxel resistant); assay: Cytotoxic activity of dimers against HCT116/VM46 cells
From the text: as §1

[6] = Table 4, H226 human lung cancer cell line, read-out: Cell Line (IC50, nM) H226
[7] = Table 4, N87 human gastric cancer cell line
[8] = Table 4, OVCAR3 human ovarian cancer cell line, read-out: Cell Line (IC50, nM) OVCAR3
[9] = Homo sapiens, NCI-H226, read-out: Cell Line (IC50, nM) H226
[10] = Homo sapiens, OVCAR-3, read-out: Cell Line (IC50, nM) OVCAR3
[11] = Homo sapiens, HCT-116/VM46, Table 4

Compound `CN1CCN(c2ccc(C3=CN4C(=O)c5cc6c(cc5N=C[C@@H]4C3)OCCCOc3cc4c(cc3OCCCCCCCCO6)C(=O)N3C=C(c5ccc(N6CCN(C)CC6)cc5)C[C@H]3C=N4)cc2)CC1` [IIc-8] has an IC50 [1, 6] of 0.047 nM, an IC50 [2, 7] of 0.034 nM and an IC50 [3, 8] of 0.35 nM. For the same compound, the IC50 ([4]; Table 4) was 0.006 nM and the IC50 ([5]; Table 4) was 0.076 nM.

`O=C1c2cc3c(cc2N=C[C@@H]2CC(c4ccccc4)=CN12)OCCCOc1cc2c(cc1OCCOCCOCCO3)C(=O)N1C=C(c3ccccc3)C[C@H]1C=N2` [IIc-6] was tested, and the IC50 [1, 6] was 1.1 nM, the IC50 [2, 7] was 1.5 nM and the IC50 [3, 8] was 1.7 nM. For the same compound, the IC50 ([4]; Table 4) was 0.13 nM and the IC50 ([5]; Table 4) was 6.4 nM.

In the case of `O=C1c2cc3c(cc2N=C[C@@H]2CC(c4ccccc4)=CN12)OCCCOc1cc2c(cc1OCCCCCCCCCCO3)C(=O)N1C=C(c3ccccc3)C[C@H]1C=N2` [IIc-1], the IC50 [1, 6] is reported as 12 nM, the IC50 [2, 7] is reported as 12 nM and the IC50 [3, 8] is reported as 7.6 nM. It also gave an IC50 ([5]; Table 4) of 30 nM.

`O=C1c2cc3c(cc2N=C[C@@H]2CCCN12)OCCCOc1cc2c(cc1OCCCCCCCCCCCO3)C(=O)N1CCC[C@H]1C=N2` [IIa-5] gave an IC50 [1, 6] of 69 nM, an EC50 [1] of 69 nM and an IC50 [2, 7] of 150 nM. The EC50 [2] was 150 nM, the IC50 [3, 8] was 78 nM and the EC50 [3] was 78 nM.

For `CN1CCN(c2ccc(C3=CN4C(=O)c5cc6c(cc5NC[C@@H]4C3)OCCCOc3cc4c(cc3OCCCCCCCCO6)C(=O)N3C=C(c5ccc(N6CCN(C)CC6)cc5)C[C@H]3C=N4)cc2)CC1` [IId-3], the IC50 [1, 9] was 0.035 nM, the IC50 ([2]; Homo sapiens) was 0.072 nM and the IC50 [3, 10] was 0.26 nM. The IC50 ([4]; HCT-116, Table 4) was 0.045 nM and the IC50 [5, 11] was 0.033 nM.

`C=C1C[C@H]2C=Nc3cc4c(cc3C(=O)N2C1)OCCCCCCCCOc1cc2c(cc1OCCCO4)N=C[C@@H]1Cc3ccc(N)cc3CN1C2=O` [IId-2] was tested, and the IC50 [1, 6] was 0.56 nM, the IC50 [2, 7] was 1.1 nM and the IC50 [3, 8] was 0.71 nM. The IC50 ([4]; Table 4) was 0.11 nM and the IC50 ([5]; Table 4) was 2.8 nM.

Compound `COc1ccc(C2=CN3C(=O)c4cc5c(cc4N=C[C@@H]3C2)OCCCOc2cc3c(cc2OCCCCCCCCO5)C(=O)N2C=C(c4ccc(N)cc4)C[C@H]2C=N3)cc1` [IIc-11] has an IC50 [1, 9] of 0.36 nM, an IC50 ([2]; Homo sapiens) of 0.56 nM and an IC50 [3, 10] of 0.31 nM. It also gave an IC50 ([4]; HCT-116, Table 4) of 0.063 nM and an IC50 [5, 11] of 0.36 nM.

`COc1cc2c(cc1OCCCOc1cc3c(cc1OC)C(=O)N1CCC[C@H]1C=N3)N=C[C@@H]1CCCN1C2=O` [Dimer A-4, reference compound] gave an EC50 ([1]; Homo sapiens, NCI-H226) of 70 nM, an EC50 ([2]; Homo sapiens) of 63 nM and an EC50 ([3]; Homo sapiens, OVCAR-3) of 56 nM.

Work on `CN1CCN(c2ccc(C3=CN4C(=O)c5cc6c(cc5NC[C@@H]4C3)OCCCOc3cc4c(cc3OCCCCCCCCO6)C(=O)N3C=C(c5ccc(N6CCN(C)CC6)cc5)C[C@H]3CN4)cc2)CC1` [IId-4] yielded an IC50 [1, 6] of 8.1 nM, an IC50 [2, 7] of 12 nM and an IC50 [3, 8] of 20 nM. For the same compound, the IC50 ([4]; Table 4) was 2 nM and the IC50 ([5]; Table 4) was 4.8 nM.

`O=C1c2cc3c(cc2N=C[C@@H]2Cc4ccccc4CN12)OCCCOc1cc2c(cc1OCCCCCCCCO3)C(=O)N1Cc3ccccc3C[C@H]1C=N2` [IIb-1] gave an IC50 [1, 6] of 0.22 nM, an IC50 [2, 7] of 0.53 nM and an IC50 [3, 8] of 0.33 nM. It also gave an IC50 ([5]; Table 4) of 1.3 nM.

`O=C1c2cc3c(cc2N=C[C@@H]2CCCN12)OCCCCCOc1cc2c(cc1OCCCCCCCCCCCO3)C(=O)N1CCC[C@H]1C=N2` [IIa-7] gave an IC50 [1, 6] of 12 nM, an EC50 [1] of 12 nM and an IC50 [2, 7] of 87 nM. For the same compound, the EC50 [2] was 87 nM, the IC50 [3, 8] was 14 nM and the EC50 [3] was 14 nM.

Compound `O=C1c2cc3c(cc2N=C[C@@H]2CCCN12)OCCCOc1cc2c(cc1OCCCCCCCCCCO3)C(=O)N1CCC[C@H]1C=N2` [IIa-4] has an IC50 [1, 6] of 12 nM, an EC50 [1] of 12 nM and an IC50 [2, 7] of 22 nM. It also gave an EC50 [2] of 22 nM, an IC50 [3, 8] of 20 nM and an EC50 [3] of 20 nM.

Work on `C=C1C[C@H]2C=Nc3cc4c(cc3C(=O)N2C1)OCCCCNCCCCOc1cc2c(cc1OCCCO4)N=C[C@@H]1CC(=C)CN1C2=O` [IIa-14] yielded an IC50 [1, 6] of 21 nM, an IC50 [2, 7] of 23 nM and an IC50 [3, 8] of 50 nM. It also gave an IC50 ([4]; Table 4) of 38 nM and an IC50 ([5]; Table 4) of 170 nM.

With `CN1CCN(c2ccc(C3=CN4C(=O)c5cc6c(cc5N=C[C@@H]4C3)OCCCOc3cc4c(cc3OCCCCCCCCO6)C(=O)N3C=C(c5ccc(N)cc5)C[C@H]3C=N4)cc2)CC1` [IIc-10] the IC50 [1, 6] was 0.044 nM, the IC50 [2, 7] was 0.36 nM and the IC50 [3, 8] was 0.36 nM. It also gave an IC50 ([4]; Table 4) of 0.022 nM and an IC50 ([5]; Table 4) of 0.071 nM.

Compound `O=C1c2cc3c(cc2N=C[C@@H]2Cc4ccccc4CN12)OCCCOc1cc2c(cc1OCCOCCOCCO3)C(=O)N1Cc3ccccc3C[C@H]1C=N2` [IIb-4] has an IC50 [1, 6] of 0.15 nM, an IC50 [2, 7] of 0.14 nM and an IC50 [3, 8] of 0.2 nM. The IC50 ([4]; Table 4) was 0.068 nM and the IC50 ([5]; Table 4) was 2 nM.

For `COc1ccc(C2=CN3C(=O)c4cc5c(cc4N=C[C@@H]3C2)OCCCOc2cc3c(cc2OCCCCCCCCCCCCO5)C(=O)N2C=C(c4ccc(OC)cc4)C[C@H]2C=N3)cc1` [IIc-2], the IC50 [1, 6] was 220 nM, the IC50 [2, 7] was 230 nM and the IC50 [3, 8] was greater than 250 nM. The IC50 ([4]; Table 4) was 48 nM and the IC50 ([5]; Table 4) was greater than 250 nM.
